Data as given in PubChem BioAssay (NCI).
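Each compound was tested at five concentrations against cells in 96-well plates for 48 hours. Abbreviation: GI50, concentration required for 50% inhibition of growth. TGI marks complete inhibition of growth.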 *1 amine or outer side, *2 acyl side, *3 side chain or, on linkers, in order; H or OH if unused. Where a SMILES comes first, the peptide text is derived from it. Bridges are numbered along the chain shown (N, C = ends). [ ]: non-standard residue; d: D form. Adda = CO[C@@H](Cc1ccccc1)[C@@H](C)/C=C(C)/C=C/[C@H](N[*:1])[C@H](C)C(=O)[*:2]; dAsp(3S-Me) = C[C@H](C(=O)[*:3])[C@@H](N[*:1])C(=O)[*:2]; d(γGlu) = O=C(O)[C@@H](CCC(=O)[*:2])N[*:1]; NMeDha = C=C(NC)C(=O)O

Legend:
Experiment in all cases: DTP human tumour cell line panel, 48 h
[1] = tested on: HL-60(TB) leukemia
[2] = tested on: T-47D breast
[3] = tested on: OVCAR-4 ovarian
[4] = tested on: NCI-H460 lung
[5] = tested on: HT29 colon
[6] = tested on: MCF7 breast
[7] = tested on: MOLT-4 leukemia
[8] = tested on: SNB-19 CNS
[9] = tested on: RPMI-8226 leukemia
[10] = tested on: SN12C renal
[11] = tested on: CAKI-1 renal
[12] = tested on: EKVX NSCLC
[13] = tested on: UACC-257 melanoma
[14] = tested on: COLO 205 colon
[15] = tested on: DU-145 prostate
[16] = tested on: NCI/ADR-RES ovarian
[17] = tested on: 786-0 renal
[18] = tested on: UACC-62 melanoma
[19] = tested on: SK-MEL-2 melanoma
[20] = tested on: NCI-H23 lung
[21] = tested on: HOP-92 NSCLC
[22] = tested on: MDA-MB-435
[23] = tested on: K-562 leukemia
[24] = tested on: MDA-MB-231 breast
[25] = tested on: OVCAR-3 ovarian
[26] = tested on: A549 NSCLC
[27] = tested on: SF-539 CNS
[28] = tested on: UO-31 renal
[29] = tested on: SR leukemia
[30] = tested on: OVCAR-5 ovarian
[31] = tested on: SK-MEL-5 melanoma
[32] = tested on: IGROV1 ovarian
[33] = tested on: SNB-75 CNS
[34] = tested on: M14 melanoma
[35] = tested on: SW-620 colon
[36] = tested on: HS 578T breast
[37] = tested on: HOP-62 NSCLC
[38] = tested on: OVCAR-8 ovarian
[39] = tested on: LOX IMVI melanoma
[40] = tested on: RXF 393 renal
[41] = tested on: BT-549 breast
[42] = tested on: HCT-15 colon
[43] = tested on: HCT-116 colon
[44] = tested on: SK-OV-3 ovarian
[45] = tested on: HCC-2998 colon
[46] = tested on: TK-10 renal
[47] = tested on: NCI-H226 lung
[48] = tested on: SF-295 CNS
[49] = tested on: PC-3 prostate
[50] = tested on: NCI-H522 lung
[51] = tested on: SF-268 CNS
[52] = tested on: KM12 colon
[53] = tested on: SK-MEL-28 melanoma
[54] = tested on: ACHN renal
[55] = tested on: MALME-3M melanoma
[56] = tested on: U251 CNS
[57] = tested on: CCRF-CEM leukemia

Work on `C=C1C(=O)N[C@H](C)C(=O)N[C@@H](CC(C)C)C(=O)N[C@@H](C(=O)O)[C@H](C)C(=O)N[C@@H](CCCN=C(N)N)C(=O)N[C@@H](/C=C/C(C)=C/[C@H](C)[C@H](Cc2ccccc2)OC)[C@H](C)C(=O)N[C@@H](C(=O)O)CCC(=O)N1C` (R[Adda][d(γGlu)][NMeDha][dA]L[dAsp(3S-Me)]-OH; lactam N-7) yielded a GI50 [1] greater than 5 µM, a TGI [1] greater than 5 µM and a GI50 [2] greater than 5 µM. It also gave a TGI [2] greater than 5 µM, a GI50 [3] greater than 5 µM and a TGI [3] greater than 5 µM. For the same compound, the GI50 [4] was greater than 5 µM, the TGI [4] was greater than 5 µM and the GI50 [5] was greater than 5 µM. The TGI [5] was greater than 5 µM, the GI50 [6] was greater than 5 µM and the TGI [6] was greater than 5 µM. It also gave a GI50 [7] greater than 5 µM, a TGI [7] greater than 5 µM and a GI50 [8] greater than 5 µM. It also gave a TGI [8] greater than 5 µM, a GI50 [9] greater than 5 µM and a TGI [9] greater than 5 µM. For the same compound, the GI50 [10] was greater than 5 µM, the TGI [10] was greater than 5 µM and the GI50 [11] was greater than 5 µM. It also gave a TGI [11] greater than 5 µM, a GI50 [12] greater than 5 µM and a TGI [12] greater than 5 µM. The GI50 [13] was greater than 5 µM, the TGI [13] was greater than 5 µM and the GI50 [14] was greater than 5 µM. It also gave a TGI [14] greater than 5 µM, a GI50 [15] greater than 5 µM and a TGI [15] greater than 5 µM. It also gave a GI50 [16] greater than 5 µM, a TGI [16] greater than 5 µM and a GI50 [17] greater than 5 µM. It also gave a TGI [17] greater than 5 µM, a GI50 [18] greater than 5 µM and a TGI [18] greater than 5 µM. It also gave a GI50 [19] greater than 5 µM, a TGI [19] greater than 5 µM and a GI50 [20] greater than 5 µM. The TGI [20] was greater than 5 µM, the GI50 [21] was greater than 5 µM and the TGI [21] was greater than 5 µM. For the same compound, the GI50 [22] was greater than 5 µM, the TGI [22] was greater than 5 µM and the GI50 [23] was greater than 5 µM. The TGI [23] was greater than 5 µM, the GI50 [24] was greater than 5 µM and the TGI [24] was greater than 5 µM. For the same compound, the GI50 [25] was greater than 5 µM, the TGI [25] was greater than 5 µM and the GI50 [26] was 4.68 µM. The TGI [26] was greater than 5 µM, the GI50 [27] was greater than 5 µM and the TGI [27] was greater than 5 µM. It also gave a GI50 [28] greater than 5 µM, a TGI [28] greater than 5 µM and a GI50 [29] of 1190 nM. For the same compound, the TGI [29] was greater than 5 µM, the GI50 [30] was greater than 5 µM and the TGI [30] was greater than 5 µM. The GI50 [31] was greater than 5 µM, the TGI [31] was greater than 5 µM and the GI50 [32] was 305 nM. The TGI [32] was greater than 5 µM, the GI50 [33] was greater than 5 µM and the TGI [33] was greater than 5 µM. For the same compound, the GI50 [34] was greater than 5 µM, the TGI [34] was greater than 5 µM and the GI50 [35] was greater than 5 µM. It also gave a TGI [35] greater than 5 µM, a GI50 [36] greater than 5 µM and a TGI [36] greater than 5 µM. The GI50 [37] was greater than 5 µM, the TGI [37] was greater than 5 µM and the GI50 [38] was greater than 5 µM. It also gave a TGI [38] greater than 5 µM, a GI50 [39] greater than 5 µM and a TGI [39] greater than 5 µM. It also gave a GI50 [40] greater than 5 µM, a TGI [40] greater than 5 µM and a GI50 [41] greater than 5 µM. For the same compound, the TGI [41] was greater than 5 µM, the GI50 [42] was greater than 5 µM and the TGI [42] was greater than 5 µM. It also gave a GI50 [43] greater than 5 µM, a TGI [43] greater than 5 µM and a GI50 [44] greater than 5 µM. For the same compound, the TGI [44] was greater than 5 µM, the GI50 [45] was greater than 5 µM and the TGI [45] was greater than 5 µM. It also gave a GI50 [46] greater than 5 µM, a TGI [46] greater than 5 µM and a GI50 [47] greater than 5 µM. For the same compound, the TGI [47] was greater than 5 µM, the GI50 [48] was greater than 5 µM and the TGI [48] was greater than 5 µM. It also gave a GI50 [49] greater than 5 µM, a TGI [49] greater than 5 µM and a GI50 [50] of 4.94 µM. The TGI [50] was greater than 5 µM, the GI50 [51] was greater than 5 µM and the TGI [51] was greater than 5 µM. The GI50 [52] was greater than 5 µM, the TGI [52] was greater than 5 µM and the GI50 [53] was greater than 5 µM. It also gave a TGI [53] greater than 5 µM.
Work on `N#C/C(=C\c1ccccc1)c1nc(-c2cc3ccccc3oc2=O)cs1` yielded a TGI [1] greater than 100 µM, a TGI [2] greater than 100 µM and a TGI [3] greater than 100 µM. It also gave a TGI [4] greater than 100 µM, a TGI [5] greater than 100 µM and a TGI [6] greater than 100 µM. For the same compound, the TGI [7] was greater than 100 µM, the TGI [8] was greater than 100 µM and the TGI [9] was greater than 100 µM. The TGI [10] was greater than 100 µM, the TGI [11] was greater than 100 µM and the TGI [12] was greater than 100 µM. It also gave a TGI [13] greater than 100 µM, a TGI [14] greater than 100 µM and a TGI [54] greater than 100 µM. For the same compound, the TGI [15] was greater than 100 µM, the TGI [16] was greater than 100 µM and the TGI [17] was greater than 100 µM. The TGI [18] was greater than 100 µM, the TGI [19] was greater than 100 µM and the TGI [21] was greater than 100 µM. The TGI [22] was greater than 100 µM, the TGI [23] was greater than 100 µM and the TGI [24] was greater than 100 µM. For the same compound, the TGI [26] was greater than 100 µM, the TGI [27] was greater than 100 µM and the TGI [28] was greater than 100 µM. For the same compound, the TGI [29] was greater than 100 µM, the TGI [30] was greater than 100 µM and the TGI [31] was greater than 100 µM. The TGI [55] was greater than 100 µM, the TGI [32] was greater than 100 µM and the TGI [56] was greater than 100 µM. The TGI [33] was greater than 100 µM, the TGI [34] was greater than 100 µM and the TGI [35] was greater than 100 µM. The TGI [36] was 82.1 µM, the TGI [37] was greater than 100 µM and the TGI [38] was greater than 100 µM. It also gave a TGI [39] greater than 100 µM, a TGI [40] greater than 100 µM and a TGI [41] of 77.1 µM. The TGI [42] was greater than 100 µM, the TGI [43] was greater than 100 µM and the TGI [44] was greater than 100 µM. It also gave a TGI [45] greater than 100 µM, a TGI [46] greater than 100 µM and a TGI [47] greater than 100 µM. It also gave a TGI [48] greater than 100 µM, a TGI [49] greater than 100 µM and a TGI [50] greater than 100 µM. The TGI [51] was greater than 100 µM, the TGI [52] was greater than 100 µM and the TGI [53] was greater than 100 µM. The TGI [57] was greater than 100 µM.
